In patent US20250144031A1, “COMPOSITION FOR TREATING SPINAL MUSCULAR ATROPHY” (Hoffmann-La Roche Inc., priority 2023, published 2025):

Columns and labels:
[1] = Risdiplam solubility in tartaric acid solution with sodium croscarmellose or crospovidone (UPLC); type: physicochemical; conditions: 0.6 mg/ml tartaric acid in tap water, pH 4.1, stirred 30 minutes, room temperature
Experimental: 60 mg of Tartaric Acid were dissolved in 100 ml tap water (0.6 mg/ml) at room temperature and protected from light. A representative amount of Sodium Croscarmellose or Crospovidone was added and dispersed. After that, 100 mg of risdiplam were added, the suspension stirred for 30 minutes und the concentration analyzed by UPLC (see Table 11).

[2] = air of a workplace; classified by regulatory authorities at EU and national levels; cited from earlier work
[3] = Impact of sucralose on risdiplam stability; type: physicochemical; conditions: 25 mg risdiplam and 475 mg Sucralose, 15 days at 70° C./75% Relative Humidity
Experimental: FIG. 3: Discoloration and decomposition of risdiplam in the presence of Sucralose, a) Risdiplam+Sucralose at time 0, b) risdiplam+Sucralose (70° C./75% Relative Humidity) after 15 days, c) sucralose without Risdiplam (70° C./75% Relative Humidity) after 15 days.
The impact of Sucralose on Risdiplam stability was evaluated. Vial (a) contained […] and is shown at time 0; vial (b) is 25 mg risdiplam and 475 mg Sucralose after 15 days at 70° C./75% Relative Humidity; and vial (c) is Sucralose without Risdiplam after 15 days at 70° C./75% Relative Humidity.

Cc1cn2nc(-c3cc(=O)n4cc(N5CCNC6(CC6)C5)ccc4n3)cc(C)c2n1 [Risdiplam, 7-(4,7-diazaspiro[2.5]octan-7-yl)-2-(2,8-dimethylimidazo[1,2-b]pyridazin-6-yl)pyrido[1,2-a]pyrimidin-4-one]
Concentration (Nominal 1 mg/ml) ([1]; with Crospovidone (75 mg)): 970 µg/mL
Concentration (Nominal 1 mg/ml) ([1]; with Sodium Croscarmellose (75 mg)): 280 µg/mL
IOEL (occupational exposure limit) [2]: 1.0-10 microgram/m3
Stability of risdiplam in presence of Sucralose [3]: cause discoloration and promote the decomposition of risdiplam
